This note sets out measurements from patent EP4752145A1, “DIAMINOCYCLOPENTYL SUBSTITUTED HETEROARYL DERIVATIVES, USE THEREOF AND PREPARATION METHOD THEREFOR” (Tuojie Biotech (Shanghai) Co., Ltd., priority 2023, dated 2025).

The structures appear in SMILES notation. A value given as a limit tells only on which side of the number the result lay.

Series [1] in a line: Stability test in hepatocytes (metabolic clearance rate). Format: in vitro ADME. Particulars: cryopreserved hepatocytes, mouse hepatocytes, 0.5 × 10^6 cells/mL, up to 120 min. As to the method: • 1) The test compounds and the control drug verapamil powder were dissolved in DMSO to prepare high-concentration stock solutions. Before use, the stock solutions were diluted with DMSO to prepare 100 µM working solutions. The final concentrations of the test compounds and verapamil were 1 µM. • 2) A tube of cryopreserved hepatocytes was taken. It was ensured that the hepatocytes were still in a low-temperature frozen state before thawing. The hepatocytes were quickly placed in a 37 °C water bath, gently shaken until all ice crystals were dispersed, sprayed with 70% ethanol, and then transferred to a biosafety cabinet. • 3) The contents of small tubes of hepatocytes from different species were poured into a centrifuge tube containing 50 mL of thawing culture medium and centrifuged at 100 g for 10 min. After centrifugation, the thawing culture medium was pipetted off, and a sufficient amount of incubation culture medium was added to obtain a cell suspension with a cell density of about 1.0 × 10^6 cells/mL. • 4) Hepatocytes were counted using Cellometer Vision, and the viable cell density was determined. The viability of hepatocytes must be greater than 75%. The hepatocyte suspension was diluted with the incubation culture medium to a viable cell density of 0.5 × 10^6 cells/mL. • 5) 198 µL of the viable cell suspension was transferred to a 96-well deep-well plate, and the deep-well plate was placed on a vortexer and pre-heated in an incubator for 10 min. In the experiment, the incubation was performed in duplicate. • 6) 2 µL of the 100 µM test compound or verapamil solution was added to each well to start a reaction, and the deep-well plate was placed back on the vortexer in the incubator. • 7) The samples were incubated. At 0 min, 15 min, 30 min, 60 min, 90 min, and 120 min, 25 µL of the suspension was taken, and 150 µL of acetonitrile containing an internal standard was added to stop the reaction. After 10 min of vortexing, the mixture was centrifuged at 3220 g at 4 °C for 45 min. […] After thorough mixing, the mixture was analyzed by UPLC-MS/MS.
All data calculations were performed through Microsoft Excel software. The peak areas were determined through an extracted ion chromatogram. Through linear fitting of the natural logarithm of the parent drug […] percentage versus time, the in vitro half-life (T1/2) of the parent drug was determined.
The in vitro half-life (T1/2) was calculated through the slope: In vitro T1/2 = 0.693/k [formula]
The in vitro clearance rate (in µL/min/10^6 cells) was calculated using the following formula: In vitro CLint = kV/N, [formula] • where V = the incubation volume per well (0.2 mL); • N = the number of cells per well (0.1 × 10^6 cells). […]

The next series deals with PCSK9 (biotinylated) (Homo sapiens, UniProt Q8NBP7). Description: Binding of compounds to PCSK9 by SPR (BIAcore S200, SA chip). As to conditions: for Kd: SPR, immobilized biotinylated PCSK9, test compounds diluted 3-fold from 10 µM. As to the method: Table 1. Main experimental materials and instruments
• 1) Protein: PCSK9 (biotinylated) (Acro). The protein was dissolved in water to 200 µg/mL, and the solution was stored at -80 °C. • 2) Chip: SA chip. • 3) Running buffer: 1 × HBSP + 4% DMSO + 0.1 mM CaCl2.
• 1) The chip was pre-warmed to room temperature. • 2) The required buffer was prepared and filtered through a 0.22 µm filter membrane. • 3) The chip was loaded, and parameters were written to the chip. • 4) The PCSK9 protein was diluted to 50 µg/mL in PBS. • 5) An immobilization program was set on the BIAcore S200 instrument. • 6) The immobilization program was run. • 7) The final immobilization response value was 8000 RU, and the maximum response value was 49.4 RU.
1) The compounds were serially diluted 3-fold in the running buffer. The reference compound was diluted 3-fold from 0.4 µM. The test compounds were diluted 3-fold from 10 µM. 2) A dissolution correction buffer was prepared according to the table below: Table 2. Dissolution correction buffer
3) The "LMW multi kinetics" program of the instrument was set as a running program for compound testing. • a) The association time was set at 100 s, and the dissociation time was set at 300 s. 4) The compound testing program was run.
1) Rmax = (MWanalyte/MWligand) × RL × Sm [formula] When affinity fitting was used to fit a curve, the response value of the highest concentration should be close to the fitted Rmax value for an optimal result. 2) Solvent correction and compound concentration gradients were checked. 3) The baseline, binding, and positive compound results in the test report were checked. 4) A suitable fitting method was selected according to the actual association to fit a curve. 5) Whether the fitting result met the data quality assessment criteria of the instrument was checked. Table 3. The binding of compounds of the present disclosure to PCSK9 (KD)
In general terms: SPR reads the build-up and loss of mass on a sensor chip optically.

Series [2] concerns LDLR protein level of HepG2 cells. Description: Effect on LDLR level of HepG2 cells stimulated with PCSK9 D374Y (human LDLR ELISA). The class given is cell-based. As to conditions: 75 µM compound; for LDLR up-regulation level" (% control): 4 nM PCSK9 D374Y, 48 h, mean of three duplicate wells; for LDLR protein level result relative to reference compound 1: fold of the result of reference compound 1. As to the method:
HepG2 cells were seeded in a 96-well plate at 30,000 cells/well. The next day, 4 nM PCSK9 D374Y was added to each well to stimulate cells, and the cells were treated with a test compound at the same concentration. Three duplicate wells were set for each sample. The cells were cultured at 37 °C with 5% carbon dioxide for 48 h. The cells were washed twice with PBS, and the supernatant was discarded. The cells were then placed on ice and treated with an RIPA lysis buffer containing protease and phosphatase inhibitors at 50 µL/well. The cell culture plate was frozen overnight in a -80 °C freezer, thawed, then lysed on ice for 30 min, and then centrifuged at a low temperature for 15 min. The cell lysate was diluted 20-fold, and an ELISA was performed. A sample or a reference standard was added to a coated well plate at 50 µL/well, and the plate was incubated at room temperature for 2 h. The plate was washed 4 times with a washing buffer by aspiration, and a human LDLR conjugated antibody was added at 200 µL/well. The plate was incubated at room temperature for 2 h. The washing step was repeated, and a substrate solution was added at 200 µL/well. After 30 min, a stop solution was added at 50 µL/well, and the OD was measured at 450 nm. After the LDLR concentration in the sample wells was calculated according to a standard curve, the LDLR increase rate was calculated using the formula (sample value - mean of control wells) / mean of control wells. Data were processed using GraphPad Prism 8. Table 6. The effects of reference compound 1 and example compounds at a concentration of 75 µM on the LDLR protein level of HepG2 cells
(In general: In an ELISA, binding on a coated surface is turned into a signal by an enzyme label.)

In the next series the test system is Mouse hepatocytes. Nature of the series: Metabolite testing in mouse hepatocytes (parent drug remaining). The class given is in vitro ADME, Mice. Particulars: mouse hepatocytes (ICR/CD-1, male), 10 µM. Here is the method: The objective of this experiment was to identify possible metabolites of a test compound in hepatocytes of different species and speculate about its possible metabolic pathway. The test concentration of the test compound was 10 µM.
Mouse hepatocytes were preserved in liquid nitrogen.
The test compound and the control drug verapamil powder were dissolved in DMSO to prepare high-concentration stock solutions. Before use, the stock solutions were diluted with DMSO to prepare 2 mM working solutions. The final concentrations of the test compound and verapamil were 10 µM.
• 1) Before use, the hepatocyte thawing solution and the incubation solution were placed in a 37 °C water bath and pre-heated for at least 15 min. • 2) A tube of cryopreserved hepatocytes was taken. […] After centrifugation, the thawing culture medium was pipetted off, and a sufficient amount of incubation culture medium was added to obtain a cell suspension with a cell density of about 1.5 × 10^6 cells/mL. • 4) Hepatocytes were counted using Cellometer Vision, and the viable cell density was determined. […]
• 1) 1 µL of the 2 mM test compound solution was pipetted into a 24-well incubation plate, and 199 µL of the hepatocyte suspension was then added to start a reaction. […] 60 µL of the supernatant was well mixed with 60 µL of purified water, and the mixture was then analyzed by UHPLC-MS/MS. […]

The next series can be described thus: in vivo. Particulars: male, C57BL6J, mouse, plasma, po, 10 mg/kg.
Series [3] is described as follows: In vivo pharmacokinetic experiment in mice. Particulars: oral, 10 mg/kg, fold of reference compound 1.
Description: C57BL6J mice were used as test animals. […] Reference compound 1 and the example compound were both administered at a dose of 10 mg/kg. Procedure: Mice were intragastrically dosed with reference compound 1 and the example compound. At 0.25 h, 0.5 h, 1 h, 2 h, 4 h, 6 h, 8 h, and 24 h post-dose, blood samples (about 0.03 mL) were collected via peripheral venipuncture, placed into test tubes containing EDTA-K2, and centrifuged at around 4 °C at 4000 g per minute for 5 min to separate plasma, and the plasma was stored at -75 °C.
Determination of the content of the test compound in mouse plasma after the compound (at different concentrations) was orally administered: 10 µL of the mouse plasma collected at each time point post-dose was vortexed with 5 µL of a blank solution and 200 µL of a solution of dexamethasone (internal standard) in acetonitrile for 30 s. The mixture was centrifuged for 15 min (3900 rpm), and 12 µL of the supernatant was taken for LC/MS/MS analysis.

Sequence of PCSK9 (biotinylated) (Q8NBP7 153-692): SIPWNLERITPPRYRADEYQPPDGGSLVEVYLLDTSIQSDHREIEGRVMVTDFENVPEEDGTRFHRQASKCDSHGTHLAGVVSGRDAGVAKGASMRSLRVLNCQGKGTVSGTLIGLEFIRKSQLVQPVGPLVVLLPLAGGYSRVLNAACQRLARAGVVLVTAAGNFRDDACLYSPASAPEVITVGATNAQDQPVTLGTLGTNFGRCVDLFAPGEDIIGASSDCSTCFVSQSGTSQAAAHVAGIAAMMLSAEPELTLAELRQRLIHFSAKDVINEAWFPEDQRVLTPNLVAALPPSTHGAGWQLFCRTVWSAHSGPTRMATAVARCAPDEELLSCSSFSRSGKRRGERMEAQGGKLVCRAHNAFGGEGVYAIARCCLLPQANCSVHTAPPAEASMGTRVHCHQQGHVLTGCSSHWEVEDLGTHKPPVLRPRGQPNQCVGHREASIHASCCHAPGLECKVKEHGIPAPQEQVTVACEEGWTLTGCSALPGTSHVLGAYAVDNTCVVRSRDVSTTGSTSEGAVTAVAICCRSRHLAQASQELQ

What is called hepatocyte CLint is the capacity of the preparation to metabolise the compound, expressed as a volume cleared per time. Low readings indicate greater metabolic stability, high ones faster metabolism. As for `O=c1ccccn1-c1ccc(N[C@H]2CC[C@H](Nc3ncc4sccc4n3)C2)nc1` [Reference compound 2, reference compound], the hepatocyte CLint at 1 µM in series [1] amounted to 15.7 µL/min/1e6 cells.

In general, Kd refers to the equilibrium constant for the complex coming apart. `O=c1ccccn1-c1ccc(N[C@H]2CC[C@H](Nc3ncc4ccccc4n3)C2)nc1` [Example 11, 1-(6-{[(1S,3S)-3-(Quinazolin-2-ylamino)cyclopentyl]amino}pyridin-3-yl)-1,2-dihydrop yridin-2-one] returned a Kd on PCSK9 (biotinylated) of 180 nM.

Consider `O=c1ccccn1-c1ccc(N[C@H]2CC[C@H](Nc3ncc4c(n3)C(F)(F)CC4)C2)nc1` [Example 2, 1-(6-{[(1S,3S)-3-[(7,7-Difluoro-6,7-dihydro-5H-cyclopenta[1,2-d]pyrimidin-2-yl)amino]cyclopentyl]amino}pyridin-3-yl)-1,2-dihydropyridin-2-one], for which the Kd at PCSK9 (biotinylated) was determined as 68.7 nM. In addition, the hepatocyte CLint at 1 µM in series [1] was found to be 21 µL/min/1e6 cells.

As for `O=c1ccccn1-c1cnc(N[C@H]2CC[C@H](Nc3ncc4c(n3)OCCO4)C2)c(F)c1` [Example 6, 1-(5-Fluoro-6-{[(1S,3S)-3-(6,7-dihydro[1,4]dioxino[3,2-d]pyrimidin-2-ylamino)cyclopentyl]amino}pyridin-3-yl)-1,2-dihydropyridin-2-one], the “LDLR up-regulation level" (% control)” value in series [2] worked out at 155 % control.

As usually defined, the AUC(0-t) is exposure summed from dosing to a finite time, without extrapolation to infinity. Usually Cmax stands for the highest concentration seen after dosing. A word on the half-life: it is the time needed for the level to fall by half in the phase considered. Read a low half-life as fast loss. In turn, `O=c1ccccn1-c1ccc(N[C@H]2CC[C@H](Nc3ncc4c(n3)OCCO4)C2)nc1` [Example 3, 1-(6-{[(1S,3S)-3-(6,7-Dihydro[1,4]dioxino[3,2-d]pyrimidin-2-ylamino)cyclopentyl]amino}pyridin-3-yl)-1,2-dihydropyridin-2-one] gave a Kd on PCSK9 (biotinylated) of 75.8 nM. For the same compound, the “binding stronger than that of the reference compound 2” value at PCSK9 (biotinylated) (fold of binding strength versus reference compound 2) is “more than 10 times”. In series [2], the “LDLR up-regulation level" (% control)” value is given as 160 % control. Further, in the series on Mouse hepatocytes, the “Normalized parent drug remaining proportion (%) after 240 min of incubation” value was found to be 98.3%. The same compound gave a hepatocyte CLint at 1 µM in series [1] of less than 0.1 µL/min/1e6 cells. Also, in the series “in vivo”, the AUC(0-t) came out at 48000 ng·h/mL, the Cmax came out at 11400 ng/mL and the half-life is 2.75 h. Further, the “plasma exposure level relative to reference compound 1” value in series [3] is reported as approximately 3 times.

On PCSK9 (biotinylated), `O=c1ccccn1-c1ccc(N[C@H]2CC[C@H](Nc3ncc4c(n3)CCC4)C2)nc1` [Example 1, 1-(6-{[(1S,3S)-3-(6,7-Dihydro-5H-cyclopenta[1,2-d]pyrimidin-2-ylamino)cyclopentyl]amino}pyridin-3-yl)-1,2-dihydropyridin-2-one] returned a Kd of 26.3 nM. The compound also had a hepatocyte CLint at 1 µM in series [1] of 13.2 µL/min/1e6 cells.

On to `O=c1ccccn1-c1cnc(N[C@H]2CC[C@H](Nc3ncc4c(n3)OCCO4)C2)cn1` [Example 7, 1-(5-{[(1S,3S)-3-(6,7-Dihydro[1,4]dioxino[3,2-d]pyrimidin-2-ylamino)cyclopentyl]amino}pyrazin-2-yl)-1,2-dihydropyridin-2-one], for which the “LDLR protein level result relative to reference compound 1” value in series [2] stood at 1.16 times.

Regarding `O=c1cccnn1-c1ccc(N[C@H]2CC[C@H](Nc3ncc4c(n3)OCCO4)C2)nc1` [Example 5, 2-(6-{[(1S,3S)-3-(6,7-Dihydro[1,4]dioxino[3,2-d]pyrimidin-2-ylamino)cyclopentyl]amino}pyridin-3-yl)-3H,2H-1,2-pyridazin-3-one], the “LDLR up-regulation level" (% control)” value in series [2] is listed as 188 % control.

Turning to `O=C1c2ccccc2CN1c1cnc(N[C@H]2CC[C@H](Nc3ncc4c(n3)OCCO4)C2)cn1` [Example 8, 2-(5-{[(1S,3S)-3-(6,7-Dihydro[1,4]dioxino[3,2-d]pyrimidin-2-ylamino)cyclopentyl]amino}pyrazin-2-yl)-2,3-dihydro-1H-isoindol-1-one], the “LDLR protein level result relative to reference compound 1” value in series [2] was 1.04 times.
